Measured values from patent publication US9149465B2, “Isoxazolines as inhibitors of fatty acid amide hydrolase” (Infinity Pharmaceuticals, Inc., priority 2009, dated 2015).

Target: T1, human FAAH (Homo sapiens, UniProt O00519)
T1 construct: host or cells: COS-7 cells, transient transfection; 13,000 g membrane fraction solubilised in 1% Triton X-100
T1 sequence (O00519 1-579): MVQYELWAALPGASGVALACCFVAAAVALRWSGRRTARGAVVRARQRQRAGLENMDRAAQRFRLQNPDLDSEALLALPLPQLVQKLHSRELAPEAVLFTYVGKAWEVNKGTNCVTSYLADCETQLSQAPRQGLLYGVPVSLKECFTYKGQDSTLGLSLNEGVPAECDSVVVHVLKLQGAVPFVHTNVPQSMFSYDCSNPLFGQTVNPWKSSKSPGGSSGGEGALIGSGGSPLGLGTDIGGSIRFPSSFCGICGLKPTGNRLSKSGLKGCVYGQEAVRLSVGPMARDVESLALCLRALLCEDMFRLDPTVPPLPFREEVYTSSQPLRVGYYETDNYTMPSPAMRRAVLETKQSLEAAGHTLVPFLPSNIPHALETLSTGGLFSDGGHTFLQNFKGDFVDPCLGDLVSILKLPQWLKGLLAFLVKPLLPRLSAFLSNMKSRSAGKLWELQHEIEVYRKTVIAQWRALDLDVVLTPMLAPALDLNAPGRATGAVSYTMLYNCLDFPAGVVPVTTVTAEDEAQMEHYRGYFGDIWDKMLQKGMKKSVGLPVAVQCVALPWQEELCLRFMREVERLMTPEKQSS
Test: Inhibition of human FAAH (AMC arachidonoyl amide fluorescence assay)
Type: biochemical
Conditions: inhibitor preincubated 30 minutes at room temperature; 20 μM AMC arachidonoyl amide; 4 hours; read-out: Activity (Ki, inhibitors of human FAAH)
Procedure: Human FAAH Preparation: COS-7 cells were split the day before, 1:5 into 150 mm x […] cell culture dishes (Corning Inc., Cat. No. 430599). Transient transfection took place at 30-40% confluency according to FuGENE 6 Transfection Reagent (Roche, Cat. No. 11814 443 001).
Transfection Procedure: The FuGENE transfection 6 reagent (45 uL) was added to 1410 μL of media (DMEM, serum free without pen/strep) in a 15 mL conical tube and incubated at room temp for 5 minutes, followed by the addition of FAAH plasmid DNA (15 μg) (OriGene Cat. No. TC119221, Genbank Accession No. NM_001441.1, 0.67 ug/uL) and a further incubation of 15 minutes at room temperature. The resulting solution was added into one dish of 30-40% confluent COS-7 cells in a drop-wise manner. The COS-7 cell dish was subsequently incubated for 48 hours. The cells are then harvested.
Harvest procedure: Media was aspirated from the dishes and the cells rinsed with 10 mL PBS. The PBS was removed and 3 mL of PBS added to the dish. The dish was scraped to resuspend the cells, and the subsequent cell suspension collected into a 15 mL conical tube. The cells were pelleted by centrifugation at 1200 rpm for 5 minutes in a bench top centrifuge. PBS was removed and the cell pellet snap frozen in liquid nitrogen and stored at −80° C.
COS-7 cells —FAAH purification: • (1) Fractionation: Frozen cell pellets from transient transfections were thawed on ice and resuspended in 12.5 mM Hepes pH 8.0, 100 mM NaCl, 1 mM EDTA (10 mL/0.2 g cell pellet). The pellets were dounce homogenized and then sonicated to produce cell extract. The cell extract was subsequently centrifuged at 1000 g to remove cellular debris. The pellet was discarded and the supernatant centrifuged at 13,000 g for 20 minutes. The pellet contained membrane bound FAAH. The supernatant was discarded and the pellet resolubilized. • (2) Re-solubilization: The fraction of interest, (13,000 g, membrane fraction) was re-suspended in 2.3 mL re-suspension buffer (20 mM Hepes pH 7.8, 10% v/v Glycerol, 1 mM EDTA, 1% Triton X-100) and the sample incubated on ice for 1 hour and then centrifuged to remove any particulate matter. The supernatant containing solubilized human FAAH was aliquoted and snap frozen in liquid nitrogen and stored at −80° C. until use. • (3) Characterization: Protein Concentration determined by Bradford assay. • SDS gel and Western blot to confirm presence of FAAH • FAAH activity assay • Km determination-96-well assay • Linear dependence—96-well assay • Standard compound Ki determination—384-well assay
Human FAAH assay; Experimental Protocol: A 0.1 mg/mL Human FAAH solution was made up in FAAH reaction buffer, and 24 ul pipeted into a 384 well plate. To this was added 1 μL of a 3 fold serially diluted inhibitor from a DMSO stock solution. The FAAH solution and inhibitor were incubated for 30 minutes at room temperature. The FAAH reaction was initiated by the addition of 25 μL of 40 μM AMC Arachidonoyl Amide in FAAH reaction buffer, yielding a final reaction human FAAH preparation concentration of 0.05 mg/ml and AMC-Arachidonoyl substrate concentration of 20 μM, reaction volume 50 μL. The reaction was allowed to proceed for 4 hours at room temperature. The reaction was stopped by the addition of 25 μL 12 μM a-ketoheterocycle (Cayman Chemicals, catalogue #10435). The microtiter plate was read in the envision plate reader.
The raw fluorescence was plotted on the y axis and the inhibitor concentration on the x axis to give a dose response inhibition curve. The data was fitted to a single site competitive inhibition equation, fixing the Km for the human enzyme to 12 μM and 9 μM respectively.

Ki	Compound
≤ 100 nM	O=C(O)CNC(=O)c1ccc(OC2=NOC(c3ccc(OC(F)(F)F)cc3)C2)cn1 (racemic) [I-106]
≤ 100 nM	CNC(=O)c1ccc(OC2=NOC(c3ccc(OC(F)(F)F)cc3)C2)cn1 (racemic) [I-107]
100 to 1000 nM	CN(C)C(=O)c1ccc(OC2=NOC(c3ccc(OC(F)(F)F)cc3)C2)cn1 (racemic) [I-108]
≤ 100 nM	O=C(NCCO)c1ccc(OC2=NOC(c3ccc(OC(F)(F)F)cc3)C2)cn1 (racemic) [I-109]
≤ 100 nM	O=C(O)c1ccc(OC2=NOC(c3ccc(Oc4ccccc4)cc3)C2)cn1 (racemic) [I-110]
≤ 100 nM	CN(C)C(=O)c1ccc(OC2=NOC(c3ccc(Oc4ccccc4)cc3)C2)cn1 (racemic) [I-111]
≤ 100 nM	FC(F)(F)Oc1ccc(C2CC(Oc3cncnc3)=NO2)cc1 (racemic) [I-112]
≤ 100 nM	CC1(c2ccc(OC(F)(F)F)cc2)CC(Oc2ccc(C(=O)O)nc2)=NO1 (racemic) [I-113]
≤ 100 nM	CNC(=O)c1ccc(OC2=NOC(C)(c3ccc(OC(F)(F)F)cc3)C2)cn1 (racemic) [I-114]
≤ 100 nM	CCNC(=O)c1ccc(OC2=NOC(C)(c3ccc(OC(F)(F)F)cc3)C2)cn1 (racemic) [I-115]
100 to 1000 nM	CC1(c2ccc(OC(F)(F)F)cc2)CC(Oc2ccc(C(=O)NCC(F)(F)F)nc2)=NO1 (racemic) [I-116]
≤ 100 nM	CC1(c2ccc(OC(F)(F)F)cc2)CC(Oc2ccc(C(=O)NO)nc2)=NO1 (racemic) [I-117]
100 to 1000 nM	NC(=O)CNC(=O)c1ccc(OC2=NOC(c3ccc(OC(F)(F)F)cc3)C2)cn1 (racemic) [I-118]
≤ 100 nM	Fc1cccc(-c2ccc(C3CC(Oc4cncnc4)=NO3)c(F)c2)c1 (racemic) [I-119]
≤ 100 nM	Fc1cc([C@H]2CC(Br)=NO2)ccc1OC(F)(F)F (racemic) [I-120]
≤ 100 nM	Fc1cc([C@H]2CC(Oc3cncnc3)=NO2)ccc1OC(F)(F)F (racemic) [I-121]
≤ 100 nM	COC(=O)c1ccc(OC2=NO[C@@H](c3ccc(OC(F)(F)F)c(F)c3)C2)cn1 (racemic) [I-122]
≤ 100 nM	O=C(O)c1ccc(OC2=NO[C@@H](c3ccc(OC(F)(F)F)c(F)c3)C2)cn1 (racemic) [I-123]
≤ 100 nM	FC(F)(F)Oc1ccc([C@H]2CC(Br)=NO2)cc1Cl (racemic) [I-124]

Ki	Compound
≤ 100 nM	FC(F)(F)Oc1ccc(C2CC(Oc3cncnc3)=NO2)cc1Cl (racemic) [I-125]
≤ 100 nM	FC1(F)Oc2ccc(C3CC(Br)=NO3)cc2O1 (racemic) [I-126]
100 to 1000 nM	FC1(F)Oc2ccc([C@H]3CC(Oc4cncnc4)=NO3)cc2O1 (racemic) [I-127]
≤ 100 nM	O=C(O)CCc1ccc(OC2=NOC(c3ccc(OC(F)(F)F)cc3)C2)cn1 (racemic) [I-128]
≤ 100 nM	CC1(c2ccc(OC(F)(F)F)cc2)CC(Oc2cncnc2)=NO1 (racemic) [I-129]
100 to 1000 nM	FC(F)(F)C1(c2ccc(Oc3ccccc3)cc2)CC(Br)=NO1 (racemic) [I-130]
≤ 100 nM	FC(F)(F)C1(c2ccc(Oc3ccccc3)cc2)CC(Oc2cncnc2)=NO1 (racemic) [I-131]
100 to 1000 nM	CSc1ncc(OC2=NOC(c3ccc(OC(F)(F)F)cc3)C2)cn1 (racemic) [I-132]
≤ 100 nM	CS(=O)(=O)c1ncc(OC2=NOC(c3ccc(OC(F)(F)F)cc3)C2)cn1 (racemic) [I-133]
≤ 100 nM	CSc1ccc(OC2=NOC(c3ccc(OC(F)(F)F)cc3)C2)cn1 (racemic) [I-134]
≤ 100 nM	CS(=O)(=O)c1ccc(OC2=NOC(c3ccc(OC(F)(F)F)cc3)C2)cn1 (racemic) [I-135]
100 to 1000 nM	COc1ncc(OC2=NOC(c3ccc(OC(F)(F)F)cc3)C2)cc1F (racemic) [I-136]
≤ 100 nM	CCCCOc1ccc([C@H]2CC(Oc3ccc(C(=O)OC)nc3)=NO2)cc1 (racemic) [I-137]
≤ 100 nM	CCCCOc1ccc([C@H]2CC(Oc3ccc(C(=O)O)nc3)=NO2)cc1 (racemic) [I-138]
≤ 100 nM	CCCCOc1ccc([C@H]2CC(Oc3cncnc3)=NO2)cc1 (racemic) [I-139]
≤ 100 nM	CC(C)Oc1ccc([C@H]2CC(Oc3ccc(C(=O)O)nc3)=NO2)cc1 (racemic) [I-140]
≤ 100 nM	CC(C)Oc1ccc([C@H]2CC(Oc3cncnc3)=NO2)cc1 (racemic) [I-141]
≤ 100 nM	C#CCOc1ccc([C@H]2CC(Br)=NO2)cc1 (racemic) [I-142]
100 to 1000 nM	C#CCOc1ccc([C@H]2CC(Oc3cncnc3)=NO2)cc1 (racemic) [I-143]

Ki	Compound
≤ 100 nM	C#CCOc1ccc([C@H]2CC(Oc3ccc(C(=O)OC)nc3)=NO2)cc1 (racemic) [I-144]
≤ 100 nM	C#CCOc1ccc([C@H]2CC(Oc3ccc(C(=O)O)nc3)=NO2)cc1 (racemic) [I-145]
100 to 1000 nM	O=C(O)c1cccc(OC2=NOC(c3ccc(Oc4ccccc4)cc3)C2)c1 (racemic) [I-146]
≤ 100 nM	O=C(O)c1ccc(OC2=NOC(c3ccc(Oc4ccccc4)cc3)C2)cc1 (racemic) [I-147]
≤ 100 nM	BrC1=NO[C@@H](c2ccc(Br)cc2)C1 (racemic) [I-148]
≤ 100 nM	COC(=O)c1ccc(OC2=NO[C@@H](c3ccc(Br)cc3)C2)cn1 (racemic) [I-149]
≤ 100 nM	O=C(O)c1ccc(OC2=NOC(c3ccc(Br)cc3)C2)cn1 (racemic) [I-150]
≤ 100 nM	COC(=O)c1cc(OC2=NOC(c3ccc(OC(F)(F)F)cc3)C2)ccn1 (racemic) [I-151]
≤ 100 nM	O=C(O)c1cc(OC2=NOC(c3ccc(OC(F)(F)F)cc3)C2)ccn1 (racemic) [I-152]
100 to 1000 nM	Clc1ccc([C@H]2CC(Oc3cncnc3)=NO2)cc1 (racemic) [I-153]
≤ 100 nM	CC1(c2ccc(OC(F)(F)F)cc2)CC(Oc2ccc(-c3ccoc3)nc2)=NO1 (racemic) [I-154]
≤ 100 nM	Cc1nnc(-c2ccc(OC3=NOC(c4ccc(Oc5ccccc5)cc4)C3)cn2)o1 (racemic) [I-155]
≤ 100 nM	Cc1nnc(-c2ccc(OC3=NOC(C)(c4ccc(OC(F)(F)F)cc4)C3)cn2)o1 (racemic) [I-156]
≤ 100 nM	Cc1nnc(-c2ccc(OC3=NOC(c4ccc(OC(F)(F)F)cc4)C3)cn2)o1 (racemic) [I-157]
≤ 100 nM	Cc1nnc(-c2ccc(OC3=NOC(C)(c4ccc(OC(F)(F)F)cc4)C3)cn2)s1 (racemic) [I-158]
≤ 100 nM	Cc1nnc(-c2ccc(OC3=NOC(c4ccc(Oc5ccccc5)cc4)C3)cc2)o1 (racemic) [I-159]
≤ 100 nM	Cc1nnc(-c2cccc(OC3=NOC(c4ccc(Oc5ccccc5)cc4)C3)c2)o1 (racemic) [I-160]
≤ 100 nM	FC(F)(F)Oc1ccc(C2CC(Oc3ccc(-c4nccs4)nc3)=NO2)cc1 (racemic) [I-162]
